For data set [1], the system named is Methicillin Resistant Staphylococcus aureus MRSA-32. Nature of the data set: In-vitro MIC test (agar dilution), MRSA-32. To be noted: Mueller Hinton agar, 24 hrs at 35° C.; for MIC: Staphylococcus aureus, MRSA, read-out: Minimum Inhibitory Concentrations (MIC) MRSA-32. The class given is cell-based. From the text:
(§1) The test methods used for verifying the antimicrobial action of compound within the scope of this invention are essentially the same as those described in PCT WO 95/25106, U.S. Pat. No. 5,668,286 and EP 0 750, 618 B1, with the difference that the strains of the organisms used for the MIC determinations in these patents and applications are Staphylococcus aureus ATCC 25923, Staphylococcus epidermidis ATCC 12828, Streptococcus pyogenes ATCC 19615.
(§2) The in-vitro MIC methods of test compounds were determined essentially as described in PCT WO 95/25106, U.S. Pat. No. 5,668,286 and EP 0 750 618 B1.
(§3) Overnight grown cultures of S. aureus organisms in Tryptic Soya broth were diluted in Mueller Hinton Broth to give optical density matching with MacFarland tube 0.5 standard. Cultures were further diluted 1:10 in Mueller Hinton broth. Using Denley's mutipoint inoculator, 10^4 cells were deposited on Mueller Hinton agar (Difco) containing range of 2 fold dilutions of test compounds. These plates were incubated for 24 hrs at 35° C. and MIC results recorded. MIC is defined as minimum drug concentration that inhibits test organisms. For determining MIC of test compounds against Streptococcus pneumoniae, Mueller Hinton agar containing 5% sheep blood was employed.
(In general: Agar dilution tests growth on a series of plates holding different concentrations.)

In data set [2] the test system is Enterococcus faecalis ATCC 29212. Nature of the data set: In-vitro MIC test (agar dilution), E. faecalis. The class given is cell-based. To be noted: ATCC29212, Mueller Hinton agar, 24 hrs at 35° C., read-out: Minimum Inhibitory Concentrations (MIC) E. faecalis.
Text: as §1, §2, §3

The subject of data set [3] is Streptococcus pneumoniae ATCC 49619. Kind of data set: In-vitro MIC test (agar dilution, 5% sheep blood), S. pneumoniae. The class given is cell-based. To be noted: ATCC49619, Mueller Hinton agar containing 5% sheep blood, read-out: Minimum Inhibitory Concentrations (MIC) S. pneumoniae.
Text: as §1, §2, §3

Data set [4] in a line: Pharmacokinetic study, single oral dose in beagle dog. The class given is in vivo. To be noted: serum, single oral dose 5 mg/kg p.o., Compound No. 4 and linezolid in 5% Tween, other compounds in cyclodextrin; for AUC(0-t): read-out: AUC (0-24 hr); for concentration at 12 hr: read-out: C-12 hr. The method, then: Oral (5 mg/kg) and intravenous (5 mg/kg bolus) pharmacokinetic studies were done in dog. Blood samples were collected at time points of 0, 0.08 (not for oral), 0.25, 0.50, 1.0, 1.5, 2.0, 3.0, 4.0, 5.0, 6.0, 8.0, 10.0, 12.0 and 24.0 hours. To facilitate i.v. dosing and collection of blood samples, the dogs were implanted with cannula in cephalic vein. Serum obtained from blood samples was used for HPLC-based analysis.
(§4) Serum samples were extracted by solid phase extraction technique using Water's OASIS HLB cartridges. An HPLC-Diode array detection system was used for analysis. Prepared samples were chromatographed on a YMC-AM reversed phase column (150×4.6 mm ID; 5 μm) using an isocratic mobile phase acetate buffer (50 mmol ammonium acetate pH 6.6) acetonitrile, 66:34% v/v (for a representative compound of the invention, 68:32% v/v for compound Nos. 30, 3, 7 and 11 of U.S. Pat. No. 5,668,286, and 75:25% v/v for linezolid) at a flow rate of 1 ml/min, measured at λmax 254 nm. Independently prepared analytical standards and quality control samples were analyzed with each set of unknown samples.
The pharmacokinetics of a representative compound of the invention following single oral dose administration of the compound in beagle dog is shown in Table 2.

Data set [5] in a line: Pharmacokinetic study, single I.V. bolus dose in beagle dog. The class given is in vivo. To be noted: iv, single I.V. bolus dose 15 mg/kg (table title), Compound No. 4 and linezolid in 5% Tween, other compounds in cyclodextrin, serum; for concentration at 12 hr: read-out: C-12 hr; for AUC(0-t): read-out: AUC (0-24 hr). The method, then:
Blood samples were collected at time points of 0, 0.08 (not for oral), 0.25, 0.50, 1.0, 1.5, 2.0, 3.0, 4.0, 5.0, 6.0, 8.0, 10.0, 12.0 and 24.0 hours. To facilitate i.v. dosing and collection of blood samples, the dogs were implanted with cannula in cephalic vein. Serum obtained from blood samples was used for HPLC-based analysis.
as §4
The pharmacokinetics of a representative compound of the invention following single I.V. bolus dose administration of the compound in beagle dog is shown in Table 3.

A further data set relates to MRSA 32. Kind of data set: Murine assay procedure (systemic MRSA 32 infection, oral treatment). The class given is in vivo, swiss mice. To be noted: Staphylococcus aureus; oral administration, doses 1 hr and 4 hrs after infection; MRSA 32 infected mice; percentage survival on Day 7. The method, then:
Oxazolidinone new chemical entities (NCEs) were evaluated for their in vivo efficacy in a murine infection caused by multi-drug resistant, methicillin resistant Staphylococcus aureus strain, referred to as MRSA 32, a clinical isolate obtained from a hospitalised patient. The procedure used for the murine assay is as follows:
Four weeks old swiss mice of 18-22 gm body weight were infected with MRSA 32 strain suspended in 5% Hog gastric Mucin. The infecting dose of bacteria was set at 1-2×10^8 CFU/animal. The infecting dose was administered in 0.5 ml volume injected into peritonial cavity of mice. The treatment with oxazolidinone NCEs was started one hour after infection by administering 100-200 μl of the suspensions of oxazolidinone compounds in 5% Tween 80 by oral gavage. A repeat dose was similarly administered 3 hrs later. Each oxazolidinone NCE was tested at 2-3 different dosages in the range of 2.5 mg/kg to 20 mg/kg. In each dose group 6 mice were included. As an infection control group 12 mice were infected with MRSA 32 strain without giving any treatment. Normally untreated infected mice die within 24 hrs. due to the systemic spread of infection through out the animal body. […] For compounds affording protection of MRSA infected mice, ED50 dosages were calculated on the basis of percentage survival on Day 7 after infection.
The in-vivo ED50 values using the test compounds were determined essentially by the method as described in PCT WO 95/25106, U.S. Pat. No. 5,668,286 and EP 0 750 618 B1.

Molecules are shown by their SMILES. ≈ marks a conversion by molar mass, not a printed value.

A word on the melting point: it is the temperature, or range, at which the solid turns liquid. `CCCC(C#N)C1CCN(c2ccc(N3C[C@H](CNC(C)=O)OC3=O)cc2F)CC1` (stereo partly drawn) [Compound 16, (S)-N-{3-[4-(4-(1-cyanobutyl)-piperidin-1-yl)-3-fluoro-phenyl]-2-oxo-oxazolidin-5-ylmethyl}-acetamide] displayed a melting point of 180 to 182 °C. Further, in data set [1], the MIC came out at 4 µg/mL (≈ 9.6 µM). Moreover, the MIC in data set [2] was 4 µg/mL (≈ 9.6 µM). Besides, in data set [3], the MIC came out at 4 µg/mL (≈ 9.6 µM).
`CC(=O)NC[C@H]1CN(c2ccc(N3CCC(CC#N)C(C)C3)c(F)c2)C(=O)O1` (stereo partly drawn) [Compound 12, (S)-N-{3-[4-((4-cyanomethyl)-3-methyl-piperidin-1-yl)-3-fluoro-phenyl]-2-oxo-oxazolidin-5-ylmethyl}-acetamide] returned a melting point of 148 to 149 °C. Besides, the MIC in data set [1] turned out to be 2 µg/mL (≈ 5.15 µM). Further, in data set [2], the MIC stood at 2 µg/mL (≈ 5.15 µM). In data set [3], the MIC is 2 µg/mL (≈ 5.15 µM).
What is called half-life is how long it takes for the measured level to halve. A lower half-life goes with fast loss. Usually Cmax stands for the highest concentration seen after dosing. For `CC(=O)NC[C@H]1CN(c2ccc(N3CCC(O)CC3)c(F)c2)C(=O)O1` [U.S. Pat. No. 5,668,286 (No. 3), (S)-N-{3-[3-fluoro-4-(4-hydroxy-piperidin-1-yl)-phenyl]-2-oxo-oxazolidin-5-ylmethyl}-acetamide], in data set [4], the half-life was 1.37 h, the AUC(0-t) was 2740 ng·h/mL, the Cmax was determined as 1520 ng/mL and the concentration at 12 hr was 0 ng/mL. In data set [5], the peak level (Cmax) was 6190 ng/mL, the concentration at 12 hr was 0 ng/mL, the half-life is 0.98 h and the AUC(0-t) worked out at 7530 ng·h/mL.
For `CC(=O)NC[C@H]1CN(c2ccc(N3CCC(=NO)CC3)c(F)c2)C(=O)O1` [U.S. Pat. No. 5,668,286 (No. 11), (S)-N-{3-[3-fluoro-4-(4-hydroxyimino-piperidin-1-yl)-phenyl]-2-oxo-oxazolidin-5-ylmethyl}-acetamide], the concentration at 12 hr in data set [4] came to 0 ng/mL. In data set [5], the peak level (Cmax) was 4150 ng/mL, the concentration at 12 hr is 0 ng/mL, the half-life is 0.16 h and the AUC(0-t) came out at 1320 ng·h/mL.
For the compound `CC(=O)NC[C@H]1CN(c2ccc(N3CCC(=O)CC3)c(F)c2)C(=O)O1` [U.S. Pat. No. 5,668,286 (No. 7), (S)-N-{3-[3-fluoro-4-(4-oxo-piperidin-1-yl)-phenyl]-2-oxo-oxazolidin-5-ylmethyl}-acetamide], the concentration at 12 hr in data set [4] and in data set [5] was 0 ng/mL in each case.
With `CC(=O)NC[C@H]1CN(c2ccc(N3CCC(C(C#N)C(=O)O)CC3)c(F)c2)C(=O)O1` (stereo partly drawn) [Compound 18, (S)-N-{3-[4-(4-(1-cyano-1-hydroxycarbonyl)-piperidin-1-yl)-3-fluoro-phenyl]-2-oxo-oxazolidin-5-ylmethyl}-acetamide], the melting point lay in the range of 198 to 200 °C.
In the case of `CCC(C#N)C1CCN(c2ccc(N3C[C@H](CNC(C)=O)OC3=O)cc2F)CC1` (stereo partly drawn) [Compound 15, (S)-N-{3-[4-(4-(1-cyanopropyl)-piperidin-1-yl)-3-fluoro-phenyl]-2-oxo-oxazolidin-5-ylmethyl}-acetamide], the melting point fell in the range of 185 to 186 °C. Moreover, the MIC in data set [1] is 4 µg/mL (≈ 9.94 µM). For the same compound, the MIC in data set [2] was found to be 4 µg/mL (≈ 9.94 µM). For the same compound, the MIC in data set [3] worked out at 2 µg/mL (≈ 4.97 µM).
What is called ED50 is the midpoint of the dose-response relation. A lower ED50 goes with greater potency. `CC(=O)NC[C@H]1CN(c2ccc(N3CCC(CC#N)CC3)cc2)C(=O)O1` [Compound 2, (S)-N-{3-[4-(4-cyanomethyl-piperidin-1-yl)-phenyl]-2-oxo-oxazolidin-5-ylmethyl}-acetamide]: the MIC in data set [1], in data set [2] and in data set [3] was 2 µg/mL (≈ 5.61 µM) throughout. Moreover, it took a dose of 20 mg/kg to reach the 50% effect level in the data set on MRSA 32 (ED50).
As to `N#CCC1CCN(c2ccc(N3C[C@H](CNC(=O)C(F)(F)F)OC3=O)cc2F)CC1` [Compound 8, (S)-N-{3-[4-(4-cyanomethyl-piperidin-1-yl)-3-fluoro-phenyl]-2-oxo-oxazolidin-5-ylmethyl}-trifluoroacetamide], the MIC in data set [1] was 4 µg/mL (≈ 9.34 µM); in data set [2] it was 8 µg/mL (≈ 18.7 µM); in data set [3] it was 2 µg/mL (≈ 4.67 µM).
Take `CC(C)COC(=O)NC[C@H]1CN(c2ccc(N3CCC(CC#N)CC3)c(F)c2)C(=O)O1` [Compound 10, (S)-N-{3-[4-(4-cyanomethyl-piperidin-1-yl)-3-fluoro-phenyl]-2-oxo-oxazolidin-5-ylmethyl}-isobutylcarbamate]: the “Minimum Inhibitory Concentrations (MIC) MRSA-32” value in data set [1] is above 16.0 µg/mL.
`CC(=O)NC[C@H]1CN(c2ccc(N3CCC(C(C)C#N)CC3)c(F)c2)C(=O)O1` (stereo partly drawn) [Compound 14, (S)-N-{3-[4-(4-(1-cyanoethyl)-piperidin-1-yl)-3-fluoro-phenyl]-2-oxo-oxazolidin-5-ylmethyl}-acetamide] showed a melting point of 147 to 148 °C. Also, the MIC in data set [1] was determined as 2 µg/mL (≈ 5.15 µM). Further, the MIC in data set [2] was found to be 2 µg/mL (≈ 5.15 µM). For the same compound, the MIC in data set [3] was 2 µg/mL (≈ 5.15 µM).
In turn, `CC(=O)NC[C@H]1CN(c2ccc(N3CCC(C(C#N)C#N)CC3)c(F)c2)C(=O)O1` [Compound 19, (S)-N-{3-[4-(4-(1,1-dicyanomethyl)-piperidin-1-yl)-3-fluoro-phenyl]-2-oxo-oxazolidin-5-ylmethyl}-acetamide] had a melting point of 223 to 225 °C. Further, the MIC in data set [1] is 2 µg/mL (≈ 5.01 µM). In data set [2], the MIC stood at 2 µg/mL (≈ 5.01 µM). Further, the MIC in data set [3] stood at 1 µg/mL (≈ 2.5 µM).
As for `CC(=O)NC[C@H]1CN(c2ccc(N3CCC4(CC3)OCCO4)c(F)c2)C(=O)O1` [U.S. Pat. No. 5,668,286 (No. 30), (S)-N-{3-[4-(1,4-dioxa-8-aza-spiro[4.5]dec-8-yl)-3-fluoro-phenyl]-2-oxo-oxazolidin-5-ylmethyl}-acetamide], in data set [4], the half-life was 6.68 h, the AUC(0-t) was 47200 ng·h/mL, the Cmax came to 5310 ng/mL and the concentration at 12 hr turned out to be 1840 ng/mL. Further, in data set [5], the Cmax came to 7640 ng/mL, the concentration at 12 hr worked out at 1190 ng/mL, the half-life was 6.71 h and the AUC(0-t) stood at 45100 ng·h/mL.

(Values after patent US20040235900A1, “Antimicrobial oxazolifinones with improved pharmacokinetic profile and safety advantages” (priority 2002, published 2004).)
